Measurements as given in patent US20260258064A1 (SIRONAX LTD., priority 2023, published 2026).

target: T1, SARM1 (50-724) (Homo sapiens, UniProt Q6SZW1); experiment: SARM1 (50-724) enzymatic assay (LC-MS/MS); type: biochemical; settings: Purified SARM1 (50-724) 2 nM, NMN as activator, NAD+ as substrate, 1 h at room temperature, read-out: IC50 (SARM1 inhibitory activity)
T1 construct: Purified SARM1 (50-724) with a final concentration of 2 nM was pre-incubated with a test compound
T1 sequence (Q6SZW1 50-724): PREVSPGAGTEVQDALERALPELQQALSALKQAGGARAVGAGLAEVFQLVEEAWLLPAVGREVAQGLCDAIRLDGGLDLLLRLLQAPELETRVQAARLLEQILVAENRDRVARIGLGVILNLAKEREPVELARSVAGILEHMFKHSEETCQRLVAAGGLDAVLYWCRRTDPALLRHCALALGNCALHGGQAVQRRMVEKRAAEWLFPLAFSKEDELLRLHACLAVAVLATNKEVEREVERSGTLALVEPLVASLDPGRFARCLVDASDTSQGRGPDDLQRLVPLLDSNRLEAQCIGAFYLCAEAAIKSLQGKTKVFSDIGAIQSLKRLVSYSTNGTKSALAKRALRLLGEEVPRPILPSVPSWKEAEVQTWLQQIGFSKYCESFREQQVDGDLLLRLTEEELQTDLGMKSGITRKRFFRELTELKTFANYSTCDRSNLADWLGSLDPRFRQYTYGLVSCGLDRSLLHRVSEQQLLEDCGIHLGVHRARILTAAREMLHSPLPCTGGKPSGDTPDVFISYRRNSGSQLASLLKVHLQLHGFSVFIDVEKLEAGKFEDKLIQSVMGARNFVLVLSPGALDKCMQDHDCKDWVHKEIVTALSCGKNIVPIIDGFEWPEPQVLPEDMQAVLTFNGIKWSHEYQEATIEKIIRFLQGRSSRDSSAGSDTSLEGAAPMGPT
Outline: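 Human SARM1 (50-724), 2 nM, pre-incubated 15 min at room temperature with compound in Dulbecco's PBS. Reaction started with 200 µM NMN (activator) plus […] NAD^+ substrate, run 1 h at room temperature, quenched with 70% acetonitrile. Turnover quantified by LC-MS/MS; IC50 reported.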

Q: `CC(c1ccccc1)c1cc(F)c2[nH]c(-c3nncn3-c3cnccc3C(F)(F)F)nc2c1` (stereo not drawn) [Compound 431, 7-fluoro-5-(1-phenylethyl)-2-(4-(4-(trifluoromethyl)pyridin-3-yl)-4H-1,2,4-triazol-3-yl)-1H-benzo[d]imidazole] was tested. Which IC50 did it give?
A: The IC50 was at most 100 nM.

Q: How did the IC50 turn out when `CC(c1cc(F)c2[nH]c(-c3nncn3-c3cnccc3C(F)(F)F)nc2c1)c1ncco1` (stereo not drawn) [Compound 435, 2-(1-(7-fluoro-2-(4-(4-(trifluoromethyl)pyridin-3-yl)-4H-1,2,4-triazol-3-yl)-1H-benzo[d]imidazol-5-yl)ethyl)oxazole] was run?
A: The IC50 was at most 100 nM.

Q: With `CC1CCN(c2cc(F)c3[nH]c(-c4nncn4-c4cnccc4C(F)(F)F)nc3c2)C1` (stereo not drawn) [Compound 436, 4-fluoro-6-(3-methylpyrrolidin-1-yl)-2-(4-(4-(trifluoromethyl)pyridin-3-yl)-4H-1,2,4-triazol-3-yl)-1H-benzo[d]imidazole] as the compound, how does the IC50 read?
A: Its IC50 is at most 100 nM.

Q: Which IC50 does the source give for `N#CCc1cccc2[nH]c(-c3nncn3-c3cnccc3C(F)(F)F)nc12` [Compound 437, 2-(2-(4-(4-(trifluoromethyl)pyridin-3-yl)-4H-1,2,4-triazol-3-yl)-1H-benzo[d]imidazol-4-yl)acetonitrile] here?
A: Its IC50 is over 1000 nM.

Q: For `CS(=O)(=O)Cn1cc(-c2nc3cc(C(F)(F)F)ccc3[nH]2)c(-c2cccc(Cl)c2Cl)n1` [Compound 438, 2-(3-(2,3-dichlorophenyl)-1-((methylsulfonyl)methyl)-1H-pyrazol-4-yl)-5-(trifluoromethyl)-1H-benzo[d]imidazole], which IC50 is on record?
A: Its IC50 is over 1000 nM.

Q: With `CS(=O)(=O)Cn1ncc(-c2nc3cc(C(F)(F)F)ccc3[nH]2)c1-c1cccc(Cl)c1Cl` [Compound 439, 2-(5-(2,3-dichlorophenyl)-1-((methylsulfonyl)methyl)-1H-pyrazol-4-yl)-5-(trifluoromethyl)-1H-benzo[d]imidazole] as the compound, how does the IC50 read?
A: Its IC50 is 100 to 500 nM.

Q: Which IC50 does the source give for `Fc1cc(C2CC2COC(F)F)cc2nc(-c3nncn3-c3cnccc3C(F)(F)F)[nH]c12` (stereo not drawn) [Compound 440, 5-(2-((difluoromethoxy)methyl)cyclopropyl)-7-fluoro-2-(4-(4-(trifluoromethyl)-pyridin-3-yl)-4H-1,2,4-triazol-3-yl)-1H-benzo[d]imidazole] here?
A: Its IC50 is at most 100 nM.

Q: `OCC1(c2cc(F)c3[nH]c(-c4nncn4-c4cnccc4C(F)(F)F)nc3c2)CC1` [Compound 441, (1-(7-fluoro-2-(4-(4-(trifluoromethyl)pyridin-3-yl)-4H-1,2,4-triazol-3-yl)-1H-benzo[d]imidazol-5-yl)cyclopropyl)methanol] was tested. Which IC50 did it give?
A: The IC50 was at most 100 nM.

Q: `N#CC1(c2cccc3[nH]c(-c4nncn4-c4cnccc4C(F)(F)F)nc23)CC1` [Compound 442, 1-(2-(4-(4-(trifluoromethyl)pyridin-3-yl)-4H-1,2,4-triazol-3-yl)-1H-benzo[d]imidazol-4-yl)cyclopropane-1-carbonitrile] was tested. Which IC50 did it give?
A: The IC50 was 100 to 500 nM.

Q: Which IC50 does the source give for `Fc1cccc(-n2nccc2-c2nc3cc(C(F)(F)F)ccc3[nH]2)c1Cl` [Compound 443, 2-(1-(2-chloro-3-fluorophenyl)-1H-pyrazol-5-yl)-5-(trifluoromethyl)-1H-benzo[d]imidazole] here?
A: Its IC50 is 100 to 500 nM.

Q: Which IC50 does the source give for `CC(c1cccnc1)c1cc(F)c2[nH]c(-c3nncn3-c3cnccc3C(F)(F)F)nc2c1` (stereo not drawn) [Compound 444, 7-fluoro-5-(1-(pyridin-3-yl)ethyl)-2-(4-(4-(trifluoromethyl)pyridin-3-yl)-4H-1,2,4-triazol-3-yl)-1H-benzo[d]imidazole] here?
A: The IC50 was at most 100 nM.

Q: `CC(c1ccncc1)c1cc(F)c2[nH]c(-c3nncn3-c3cnccc3C(F)(F)F)nc2c1` (stereo not drawn) [Compound 445, 7-fluoro-5-(1-(pyridin-4-yl)ethyl)-2-(4-(4-(trifluoromethyl)pyridin-3-yl)-4H-1,2,4-triazol-3-yl)-1H-benzo[d]imidazole] was tested. Which IC50 did it give?
A: The IC50 was at most 100 nM.

Q: Which IC50 does the source give for `Fc1cc(Oc2nccs2)cc2nc(-c3nncn3-c3cnccc3C(F)(F)F)[nH]c12` [Compound 446, 2-((7-fluoro-2-(4-(4-(trifluoromethyl)pyridin-3-yl)-4H-1,2,4-triazol-3-yl)-1H-benzo[d]imidazol-5-yl)oxy)thiazole] here?
A: The IC50 was 100 to 500 nM.

Q: Which IC50 does the source give for `OC1CCN(c2cc(F)c3[nH]c(-c4nncn4-c4cnccc4C(F)(F)F)nc3c2)C1` (stereo not drawn) [Compound 447, 1-(4-fluoro-2-(4-(4-(trifluoromethyl)pyridin-3-yl)-4H-1,2,4-triazol-3-yl)-1H-benzo[d]imidazol-6-yl)pyrrolidin-3-ol] here?
A: Its IC50 is 500 to 1000 nM.

Q: How did the IC50 turn out when `CC(C)(N)c1ccc2[nH]c(-c3nncn3-c3cnccc3C(F)(F)F)nc2c1` [Compound 448, 2-[2-[4-[4-(trifluoromethyl)-3-pyridyl]-1,2,4-triazol-3-yl]-1H-benzimidazol-5-yl]propan-2-amine] was run?
A: Its IC50 is 100 to 500 nM.

Q: With `FC(F)(F)c1ccc2[nH]c(-c3ccnn3-c3cnccc3C(F)(F)F)nc2c1` [Compound 449, 5-(trifluoromethyl)-2-(1-(4-(trifluoromethyl)pyridin-3-yl)-1H-pyrazol-5-yl)-1H-benzo[d]imidazole] as the compound, how does the IC50 read?
A: Its IC50 is at most 100 nM.

Q: How did the IC50 turn out when `CN(CCC(N)=O)c1cc(F)c2[nH]c(-c3nncn3-c3cnccc3C(F)(F)F)nc2c1` [Compound 450, 3-((4-fluoro-2-(4-(4-(trifluoromethyl)pyridin-3-yl)-4H-1,2,4-triazol-3-yl)-1H-benzo[d]imidazol-6-yl)(methyl)amino)propanamide] was run?
A: The IC50 was at most 100 nM.

Q: With `CN(CCCO)c1cc(F)c2[nH]c(-c3nncn3-c3cnccc3C(F)(F)F)nc2c1` [Compound 451, 3-((4-fluoro-2-(4-(4-(trifluoromethyl)pyridin-3-yl)-4H-1,2,4-triazol-3-yl)-1H-benzo[d]imidazol-6-yl)(methyl)amino)propan-1-ol] as the compound, how does the IC50 read?
A: Its IC50 is at most 100 nM.

Q: `CCC(=O)c1cc(F)c2[nH]c(-c3nncn3-c3cnccc3C(F)(F)F)nc2c1` [Compound 452, 1-(4-fluoro-2-(4-(4-(trifluoromethyl)pyridin-3-yl)-4H-1,2,4-triazol-3-yl)-1H-benzo[d]imidazol-6-yl)propan-1-one] was tested. Which IC50 did it give?
A: The IC50 was at most 100 nM.

Q: How did the IC50 turn out when `CC(NC12CC(C1)C2)c1cc(F)c2[nH]c(-c3nncn3-c3cnccc3C(F)(F)F)nc2c1` (stereo not drawn) [Compound 453, N-(1-(7-fluoro-2-(4-(4-(trifluoromethyl)pyridin-3-yl)-4H-1,2,4-triazol-3-yl)-1H-benzo[d]imidazol-5-yl)ethyl)bicyclo[1.1.1]pentan-1-amine] was run?
A: Its IC50 is at most 100 nM.

Q: How did the IC50 turn out when `CC(c1cc(F)c2[nH]c(-c3nncn3-c3cnccc3C(F)(F)F)nc2c1)n1cccn1` (stereo not drawn) [Compound 454, 5-(1-(1H-pyrazol-1-yl)ethyl)-7-fluoro-2-(4-(4-(trifluoromethyl)pyridin-3-yl)-4H-1,2,4-triazol-3-yl)-1H-benzo[d]imidazole] was run?
A: Its IC50 is at most 100 nM.

Q: Which IC50 does the source give for `CN(CCCC(N)=O)c1cc(F)c2[nH]c(-c3nncn3-c3cnccc3C(F)(F)F)nc2c1` [Compound 455, 4-((4-fluoro-2-(4-(4-(trifluoromethyl)pyridin-3-yl)-4H-1,2,4-triazol-3-yl)-1H-benzo[d]imidazol-6-yl)(methyl)amino)butanamide] here?
A: The IC50 was at most 100 nM.

Q: How did the IC50 turn out when `Nc1nnc(-c2nc3cc(C(F)(F)F)cc(F)c3[nH]2)n1-c1cnccc1C(F)(F)F` [Compound 456, 5-(7-fluoro-5-(trifluoromethyl)-1H-benzo[d]imidazol-2-yl)-4-(4-(trifluoromethyl)pyridin-3-yl)-4H-1,2,4-triazol-3-amine] was run?
A: Its IC50 is at most 100 nM.

Q: For `FC(F)(F)c1ccc2[nH]c(-c3nnccc3N3CCOCC3)nc2c1` [Compound 457, 4-(3-(5-(trifluoromethyl)-1H-benzo[d]imidazol-2-yl)pyridazin-4-yl)morpholine], which IC50 is on record?
A: Its IC50 is 500 to 1000 nM.
